Laboratory results published in PubChem BioAssay AID732 (Emory University Molecular Libraries Screening Center, 2007).
“And” between values parts separate entries of the source, which are not always exact repeats. Equal values may be shown once. The source made the active and inactive calls. How the calls were made is not given here. Peptide text beside a SMILES is read from it. * marks the point of attachment. Cbz = O=C(OCc1ccccc1)*

Test system: in vivo angiogenesis, blood vessel count
Test: angiogenesis inhibition in living animals, in vivo study, HTS (AID 732);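 further: zebrafish embryos dosed at one day post fertilization; 0% = reference inhibitor and 100% = plate mean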
Details: stronger effect = lower value;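 tested at 30 µM in the well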

| Structure (SMILES) | vessel count % control |
| --- | --- |
| COc1ccc2c(c1)CCC1C2CC[C@@]2(C)C1CC[C@@H]2NCCCCCCN1C(=O)C=CC1=O (some centres not stated) | 0% (inactive) |
| N[C@H](C(=O)O)[C@H]1C[C@@H]1C(=O)O | 92.9% (inactive) |
| NC(N)=[N+]1CCc2ccccc2C1 | 113% (inactive) |
| NCCc1c[nH]c2ccc(C(N)=O)cc12 | 112% (inactive) |
| Cc1ccc2[nH]c(O)c(-c3[nH]c4ccc(Br)cc4c3N=O)c2c1 | 33.9% |
| CNCCc1ccc(O)c(O)c1 | 96.5% (inactive) |
| CCCN(CCc1ccccc1)C1CCc2c(O)cccc2C1 (configuration not stated) | 88.9% (inactive) |
| CC(C)[C@H](NC(=O)OCc1ccccc1)C(=O)N[C@H](C=O)Cc1ccccc1 (Cbz-Val-Phe-aldehyde) | 107% (inactive) |
| Oc1[nH]c2ccccc2c1C1=Nc2ccc(Br)cc2/C1=N\OCCN1CCNCC1 | 86.4% (inactive) and 40.6% (inactive) |
| C[C@H]1OC[C@@H](C[N+](C)(C)C)O1 | 115% (inactive) |
| COc1cc2ncnc(Nc3cccc(Cl)c3)c2cc1OC | 34.6% |
| Fc1ccc(CN(C2=NCCN2)c2c(Cl)cccc2Cl)cc1 | 92.2% (inactive) |
| O=C(OC1CCN(CCCl)CC1)C(c1ccccc1)c1ccccc1 | 102% (inactive) |
| CCCNC(C)C(=O)Nc1ccccc1C (configuration not stated) | 108% (inactive) |
| CC1CNCCN1S(=O)(=O)c1cccc2cnccc12 (configuration not stated) | 97.5% (inactive) and 98.4% (inactive) |
| CSC(N)=NCCC[C@H](N)C(=O)O | 107% (inactive) |
| CCN(CC)C(=O)N[C@@H]1C=C2c3cccc4[nH]cc(c34)C[C@H]2N(C)C1 | 75.3% (inactive) |
| Nc1ncnc2c1c(-c1ccc(Oc3ccccc3)cc1)cn2C1CCCC1 | 77.9% (inactive) |
| CCS(=O)(=O)Nc1cccc(C(=C2CCCCC2)c2cnc[nH]2)c1 | 98.4% (inactive) |
| O=C1O/C(=C/Br)CCC1c1cccc2ccccc12 (configuration not stated) | 87.4% (inactive) |
| O=C(O)CCCc1ccc(N(CCCl)CCCl)cc1 | 118% (inactive) |
| O=C(Cc1ccc(Cl)c(Cl)c1)OCCN1CCCC1 | 81.9% (inactive) |
| N.N.N.N.N.N.N.N.N.N.N.N.N.N.O.O.[Cl-].[Cl-].[Cl-].[Cl-].[Cl-].[Cl-].[Ru+4].[Ru+5].[Ru+5] | 123% (inactive) |
| Cc1cccc2c(C3=Nc4ccccc4C3=O)c(O)[nH]c12 | 26.6% |
| C[C@H]1CC2C3CCC4=CC(=O)C=C[C@]4(C)[C@@]3(Cl)[C@@H](O)C[C@]2(C)[C@@]1(O)C(=O)CO (some centres not stated) | 120% (inactive) |

| Structure (SMILES) | vessel count % control |
| --- | --- |
| N[C@@H](Cc1ccc(O)c(O)c1)C(=O)O | 118% (inactive) |
| O=Nc1c(-c2c(O)[nH]c3ccc(F)cc23)[nH]c2ccccc12 | 48.1% (inactive) |
| CN(C)CCC(c1ccccc1)c1ccccn1 (configuration not stated) | 109% (inactive) |
| O=c1[nH]oc2c1CCNC2 | 103% (inactive) |
| O=C(O)C1=CCCN(CCON=C(c2ccccc2)c2ccccc2)C1 | 104% (inactive) |
| CN[C@H]1CC[C@@H](c2ccc(Cl)c(Cl)c2)c2ccccc21 | 98% (inactive) |
| CC1=C(/C=C/C(C)=C/C=C/C(C)=C/C(=O)Nc2ccc(O)cc2)C(C)(C)CCC1 | 96.8% (inactive) |
| O=C(NCC1CCCCN1)c1cc(OCC(F)(F)F)ccc1OCC(F)(F)F (configuration not stated) | 127% (inactive) |
| CC(=O)NCCc1c[nH]c2ccccc12 | 103% (inactive) |
| COC(=O)[C@@H](N)Cc1ccc(O)c(O)c1 | 99.1% (inactive) |
| CN1CCc2cc(O)c(O)cc2C(c2ccccc2)C1 (configuration not stated) | 107% (inactive) |
| CC(C)[C@@]1(NC(=O)[C@@H]2C=C3c4cccc5[nH]cc(c45)C[C@H]3N(C)C2)O[C@@]2(O)[C@@H]3CCCN3C(=O)[C@H](Cc3ccccc3)N2C1=O | 94% (inactive) |
| CC(C)CN(C)c1nc(N)c(C(=O)N=C(N)N)nc1Cl | 101% (inactive) |
| C=C[C@H]1CN2CCC1C[C@@H]2[C@@H](O)c1ccnc2ccc(OC)cc12 (some centres not stated) | 149% (inactive) |
| O=C1c2c(O)cc(O)cc2OC(c2ccc(O)c(O)c2)C1O (configuration not stated) | 80.8% (inactive) |
| COc1cccc2c1[C@@H]1CN(CCCCn3c(=O)[nH]c4c(sc5ncc(-c6ccccc6)nc54)c3=O)C[C@@H]1CO2 | 87.9% (inactive) |
| Oc1[nH]c2ccccc2c1C1=Nc2ccc(Br)cc2/C1=N\OCCN1CCCC1 | 91.2% (inactive) and 74% (inactive) |
| O=NN(CCCl)C(=O)NCCCl | 96.9% (inactive) |
| C[C@H]1C2Cc3ccc(O)cc3C1(C)CCN2CC1CC1 (some centres not stated) | 70.9% (inactive) |
| CC(C)NNC(=O)c1ccncc1 | 118% (inactive) |
| CNc1ncnc2c1ncn2[C@H]1C[C@H](OP(=O)(O)O)[C@@H](COP(=O)(O)O)O1 | 93.2% (inactive) |
| O=C(O)/C(=C/c1c(C(=O)O)[nH]c2cc(Cl)cc(Cl)c12)c1ccccc1 | 108% (inactive) |
| CCCCCCCCCCCCCCCCCCNC(=O)OCC(COP(=O)([O-])OCC[n+]1ccsc1)OC (configuration not stated) | 92% (inactive) |
| CCN(CC)CCNC(=O)c1ccc(NC(C)=O)cc1 | 117% (inactive) |
| Cc1cccc(C#Cc2ccccc2)n1 | 92.1% (inactive) |

| Structure (SMILES) | vessel count % control |
| --- | --- |
| Cc1cccc(C)c1OCC(N)C(C)C (configuration not stated) | 112% (inactive) |
| CC(C)C(=O)Nc1ccc([N+](=O)[O-])c(C(F)(F)F)c1 | 113% (inactive) |
| CCCn1c(C)c(C(=O)c2ccc3ccccc3c2)c2ccccc21 | 110% (inactive) |
| O=C(O)C1CCCNC1 (configuration not stated) | 120% (inactive) |
| Cc1ccc2c(c1)C(N1CCN(C)CC1)=Nc1cccnc1N2 | 127% (inactive) |
| N[C@H](CCCCCP(=O)(O)O)C(=O)O | 84.2% (inactive) |
| Nc1nc(Cl)nc2c1ncn2[C@@H]1O[C@H](CO)[C@H](O)C1O (some centres not stated) | 107% (inactive) |
| CCSC(N)=Nc1ccc(C(F)(F)F)cc1 | 87.5% (inactive) |
| COc1cc(C(=O)OCCCN2CCCN(CCCOC(=O)c3cc(OC)c(OC)c(OC)c3)CC2)cc(OC)c1OC | 116% (inactive) |
| NCCCCCCCCCCN | 146% (inactive) |
| CC[N+](C)(C)Cc1ccccc1Br | 116% (inactive) |
| CC(C)C[C@H]1C(=O)N2CCC[C@H]2[C@]2(O)O[C@](NC(=O)[C@@H]3C=C4c5cccc6[nH]c(Br)c(c56)C[C@H]4N(C)C3)(C(C)C)C(=O)N12 | 110% (inactive) |
| NC(CO)C(=O)NNCc1ccc(O)c(O)c1O (configuration not stated) | 120% (inactive) |
| NC(=NCc1ccccc1)NC(=O)c1nc(Cl)c(N)nc1N | 107% (inactive) |
| CC1=C(C(=O)O)N2C(=O)[C@@H](NC(=O)C(N)c3ccccc3)[C@H]2SC1 (some centres not stated) | 93.6% (inactive) |
| NC(N)=NCCCCN=C(N)N | 88% (inactive) |
| CCCc1c(-c2ccc(O)cc2)nn(-c2ccc(O)cc2)c1-c1ccc(O)cc1 | 106% (inactive) |
| OC1CCCCC1N1CCC(c2ccccc2)CC1 (configuration not stated) | 99% (inactive) |
| O=c1[nH]c(=O)n([C@H]2C[C@H](O)[C@@H](CO)O2)cc1Br | 105% (inactive) |
| NC[C@H](O)c1ccc(O)c(O)c1 | 86.6% (inactive) |
| CC(=O)[C@H]1CCC2C3CC=C4C[C@@H](OS(=O)(=O)O)CC[C@]4(C)C3CC[C@@]21C (some centres not stated) | 85% (inactive) |
| N#CC(=Cc1ccc(O)c(O)c1)C(N)=S | 118% (inactive) |
| COc1cc([C@@H]2c3cc4c(cc3[C@H](O)C3COC(=O)[C@@H]32)OCO4)cc(OC)c1OC (some centres not stated) | 88.6% (inactive) |
| Nc1c(S(=O)(=O)O)cc(Nc2ccc(Nc3nc(Cl)nc(Nc4ccc(S(=O)(=O)O)cc4)n3)c(S(=O)(=O)O)c2)c2c1C(=O)c1ccccc1C2=O | 106% (inactive) |
| C[C@@H]1C(=O)NC2=Nc3cccc(Cl)c3CN21 | 119% (inactive) |

| Structure (SMILES) | vessel count % control |
| --- | --- |
| O=c1n(CCCN2CCN(c3cccc(Cl)c3)CC2)nc2ccccn12 | 88% (inactive) |
| NC(=O)c1cnccn1 | 76.5% (inactive) |
| O=C(O)C1=CCCNC1 | 114% (inactive) |
| Ic1ccc(N2CCN(Cc3c[nH]c4ncccc34)CC2)cc1 | 99.4% (inactive) |
| N#C/C(=C\c1c[nH]c2ccccc12)C(=O)c1ccc(O)c(O)c1 | 102% (inactive) |
| COc1cc(CNC(=O)CCCCCCC(C)C)ccc1O | 128% (inactive) |
| N#C/C(=C\c1ccc(O)c(O)c1)C(=O)c1ccc(O)c(O)c1 | 124% (inactive) |
| CCCCCCCCCC(=O)NC(CN1CCOCC1)[C@H](O)c1ccccc1 (some centres not stated) | 74% (inactive) |
| CN1CC[C@@]2(C)c3cc(O)ccc3N(C)C12 (some centres not stated) | 95.1% (inactive) |
| CN1CCc2cccc(Cl)c2CC1 | 93.2% (inactive) |
| O=C(c1ccc(F)cc1)C1CCN(CCn2c(=O)[nH]c3ccccc3c2=O)CC1 | 103% (inactive) |
| COc1cc(CC(=O)O)ccc1O | 116% (inactive) |
| Nc1c2c(nc3ccccc13)CCCC2 | 91.9% (inactive) |
| C[C@]12CC[C@@H]3c4ccc(O)cc4CC[C@H]3[C@@H]1CC[C@@H]2O | 104% (inactive) |
| NC(Cc1ccc(Cl)cc1)C(=O)O (configuration not stated) | 103% (inactive) |
| CC(=O)OCC1=C(C(=O)[O-])N2C(=O)[C@@H](NC(=O)CCC[C@@H](N)C(=O)[O-])[C@H]2SC1.[Zn+2] | 106% (inactive) |
| Oc1[nH]c2c(Cl)cc(Cl)cc2c1C1=Nc2ccc(Br)cc2/C1=N\OCCN1CCNCC1 | 90.9% (inactive) |
| COc1cc2nc(N3CCN(C(=O)c4ccco4)CC3)nc(N)c2cc1OC | 107% (inactive) |
| O=C(O)CCC(C(=O)O)N1C(=O)c2ccccc2C1=O (configuration not stated) | 105% (inactive) |
| OCC1O[C@H](O)C(Cl)C(O)C1O (some centres not stated) | 100% (inactive) |
| NC1(C(=O)O)CCc2cc(C(=O)O)ccc21 (configuration not stated) | 79.6% (inactive) |
| N=c1nc(N2CCCCC2)cc(N)n1O | 114% (inactive) |
